Like-named read-outs stand apart in the source and are kept apart here.
Tests used:
[1] = test system: ileum isolated from guinea-pig; test: Test of ileum isolated from guinea-pig; settings: Cavia porcellus, agonist activity, Tyrode solution, 37° C., read-out: pD2 (negative logarithm of the dose which produces 50% of the maximum effect) (converted)
Description: Pieces of ileum are removed from guinea-pigs killed by decapitation. The isolated ileum is placed in 10 cm^3 of Tyrode solution at 37° C. and aerated with a mixture of oxygen (95%) and carbon dioxide gas (5%). The contractions due to the products are registered by means of a detector connected to a polygraph. […].
The possible antagonist activity of the products is tested vis-a-vis acetylcholine.
The agonist activity is expressed in pD2 (negative logarithm of the dose which produces 50% of the maximum effect).
The antagonist activity is expressed in DE50 (dose reducing by 50% the maximum response induced by acetylcholine).

in vivo [2] = test: in vivo; design: species or system male mice (CD1 Charles Rivers); settings: oral route, male CD1 mice, method of Miller and Tainter; for ED50: mouse, in vivo, read-out: DE50 (dose which causes diarrhoea in 50% of the animals)
Description: The test is carried out on male mice (CD1 Charles Rivers) weighing 25 to 30 g, which have fasted for 6 hours. The product dissolved at 5% in methocel is administered by oral route by means of an oesophage probe.
Control animals receive only the excipient.
After treatment, the animals are placed separately in cages of which the base is covered with blotting paper, and they are put under observation for 30, 60, 120 and 180 minutes.
The sheets of absorbent paper are changed after each observation.
The consistency of the feces is evaluated according to the method of Randall and Baruth (Arch. Int. Pharmacodyn. 220, 94, 1976) according to the following scale of values.
1: feces slightly soft, with or without a damp halo,
2: feces slightly soft, with a well-defined circle of humidity,
3: feces soft with a large circle of humidity,
4: feces without consistency with a very large circle of humidity.
For each product, the dose is noted which causes diarrhoea in 50% of the animals according to the method of Miller and Tainter (Proc. Soc. Exp. Biol. Med., 57, 261, 1944).

Hypothermic activity = type: in vivo, male mice (CD1 Charles Rivers); settings: Mus musculus, read-out: Effective dose (-1° C.)
Description: (§1) The test is carried out on male mice (CD1 Charles Rivers) weighing 25-30 g, which have fasted for 6 hours.
The temperature of the body is noted by means of a thermocouple inserted about 1.5 cm in the rectum and connected to an electric temperature recorder.
The products are administered by oral or sub-cutaneous route and the temperatures are noted at the instant 0 and at 30 minutes, 1 hour, 2 hours and 2-and-a-half hours after treatment.
The degree of hypothermia is evaluated as the difference between the treated animals and the controls, and the dose necessary to reduce the body temperature by 1° C. is noted.

[3] = test system: central cholinergic system; settings: in vivo; cited from earlier work
[4] = intravenous route; cited from earlier work
in vivo [5] = settings: mouse, po
Description: The test was carried out on male mice (CD1 Charles Rivers), of 22 to 24 g, without food for 16 hours. […] The mortality is noted during the 7 days following the treatment.

[6] = Variation of the body temperature (duration of action); type: in vivo, male mice (CD1 Charles Rivers)
Description: as §1
The temperature of the body is noted by means of a thermocouple inserted about 1.5 cm in the rectum and connected to an electric temperature recorder. […]
The duration of action of the products is determined, using the doses able to reduce the temperature by 1° to 1.5° C.

For COC(=O)C1=CCCN(C)C1 [Arecoline, arecoline, reference compound], the EC50 [1] was 0.331 µM, the “DE50 (dose which causes diarrhoea in 50% of the animals)” value (in vivo [2]) was 35 mg/kg and the ED (-1 C) (Hypothermic activity; oral route (O.R.)) was 194 mg/kg. The ED (-1 C) (Hypothermic activity; sub-cutaneous route (SC.R)) was 3 mg/kg, the “duration of action of arecoline” value [3] was “short duration of action” and the “effect on patients having a memory defect” value [4] was “positive effect”.
In the case of CON=CC1=CCCN(C(=O)Oc2ccc(C(C)C)cc2)C1 [Example 13, Methyl ether of 1-p-isopropylphenyloxycarbonyl-1,2,5,6-tetrahydropyridin-3-carboxaldehyde oxime], the LD50 at 168 h (in vivo [5]) is reported as > 1000 mg/kg, the EC50 [1] is reported as > 100 µM and the ED50 (in vivo [2]) is reported as > 50 mg/kg. The ED (-1 C) (Hypothermic activity; oral route (O.R.)) was 3.4 mg/kg, the ED (-1 C) (Hypothermic activity; sub-cutaneous route (SC.R)) was 8.8 mg/kg and the “Variations of the body temperature” value ([6]; 6.25 mg/kg os, 0 min) was “+0.2 °C”. The “Variations of the body temperature” value ([6]; 6.25 mg/kg os, 30 min) was -0.4 °C, the “Variations of the body temperature” value ([6]; 6.25 mg/kg os, 60 min) was -1.6 °C and the “Variations of the body temperature” value ([6]; 6.25 mg/kg os, 120 min) was -0.4 °C. The “Variations of the body temperature” value ([6]; 6.25 mg/kg os, 180 min) was -0.1 °C, the “Variations of the body temperature” value ([6]; 12.5 mg/kg sc, 0 min) was “+0.2 °C” and the “Variations of the body temperature” value ([6]; 12.5 mg/kg sc, 60 min) was -0.7 °C. For the same compound, the “Variations of the body temperature” value ([6]; 12.5 mg/kg sc, 120 min) was -1.4 °C and the “Variations of the body temperature” value ([6]; 12.5 mg/kg sc, 180 min) was -1.1 °C.
With CON=CC1=CCCN(C(=O)Oc2ccc(OC)c(OC)c2)C1 [Example 14] the LD50 at 168 h (in vivo [5]) was 175 mg/kg, the EC50 [1] was > 100 µM and the ED50 (in vivo [2]) was > 50 mg/kg. For the same compound, the ED (-1 C) (Hypothermic activity; oral route (O.R.)) was 0.7 mg/kg, the ED (-1 C) (Hypothermic activity; sub-cutaneous route (SC.R)) was 0.7 mg/kg and the “Variations of the body temperature” value ([6]; 1. mg/kg os, 0 min) was “+0.1 °C”. For the same compound, the “Variations of the body temperature” value ([6]; 1. mg/kg os, 30 min) was -1.1 °C, the “Variations of the body temperature” value ([6]; 1. mg/kg os, 60 min) was -1.4 °C and the “Variations of the body temperature” value ([6]; 1. mg/kg os, 120 min) was -0.2 °C. The “Variations of the body temperature” value ([6]; 1. mg/kg os, 180 min) was “+0.1 °C”, the “Variations of the body temperature” value ([6]; 1. mg/kg sc, 0 min) was “+0.2 °C” and the “Variations of the body temperature” value ([6]; 1. mg/kg sc, 30 min) was -0.7 °C. For the same compound, the “Variations of the body temperature” value ([6]; 1. mg/kg sc, 60 min) was -1.3 °C and the “Variations of the body temperature” value ([6]; 1. mg/kg sc, 120 min) was -0.5 °C.

From patent publication US5231107A, “Derivatives of the oxime of 1,2,5,6-tetrahydropyridine 3-carboxaldehyde, the process for their preparation, their use as medicaments and the compositions containing them” (priority 1987, dated 1993)
